# Results: patent US7687512B2, “Use of pyridinyl-pyrimidinylamino-benzamide derivatives for the treatment of amyloid related disorders” (Novartis AG, priority 2003, dated 2010)
# How the values were obtained:
# Abeta secretion = conditions: HEK/APPswe cell cultures, at concentrations below 10 microM
# Procedure: HEK/APPswe cells are plated in microtiter plates precoated with 10 μg/ml poly-D-lysine at 12,000 cells/well in 100 μl/well DMEM medium supplemented with 10% FCS, 0.25 mg/ml G418 sulfate, 1% penicillin streptomycin. The following day, supernatant is replaced with 90 μl/well of fresh medium and 10 μl/well of compound diluted in culture medium are added. Two types of control wells are used: cell culture medium without cells plus 10 μl/well of all compound dilutions (background signals) and cell culture medium from untreated cells (positive control). 24 hours later after compound addition, conditioned medium is collected and Aβ levels determined by a specific sandwich ELISA.
# For the sandwich ELISA, the maxisorp microtiterplates are coated overnight at 4° C. with 100 μl/well of the monoclonal antibody 25H10 diluted 1:1000 in PB for Aβ40 detection or monoclonal antibody B10E7 diluted 1:2750 for detection of Aβ42. […] After 1 hour incubation at room temperature wells are washed as described above and alkaline phosphatase activity is determined by adding 100 μl/well of diethanolamine buffer, pH 9.8 (100 mM diethanolamine, 1 mM MgCl2, pH adjusted to 9.8 with 2 M HCl) containing the chemiluminescent CSPD substrate (25 mM stock solution diluted 1:416) and the enhancer Emerald II (diluted 1:10). […] Samples are measured in triplicate. […]
# HEK/APPswe cells = conditions: HEK/APPswe cell cultures, at concentrations below 10 microM
# Procedure: To determine cytotoxicity, cells are tested by the MTS colorimetric kit performed essentially according to the manufacturer's specifications (Promega, #G5430X). After collecting the conditioned medium for the sandwich ELISA, the rest of the conditioned medium is removed completely and replaced with 100 μl/well culture medium containing one fifth of MTS solution prepared as recommended in the kit. After 3 hours incubation at 37° C., absorbance is read at an OD of 490 nm with a reference wavelength set to 630 nm. Values are given as % metabolic rate (n=6). The 0% value is calculated from wells which had no cells, 100% from wells with an untreated cell layer
compound,measurement,setting,value
"Cc1cn(-c2cc(NC(=O)c3ccc(C)c(Nc4nccc(-c5cccnc5)n4)c3)cc(C(F)(F)F)c2)cn1 [Example 2, 4-Methyl-N-[3-(4-methyl-imidazol-1-yl)-5-trifluoromethyl-phenyl]-3-(4-pyridin-3-yl-pyrimidin-2-ylamino)-benzamide]",reduction of Abeta secretion in the medium,Abeta secretion,clear reduction
same,effect on cellular viability,HEK/APPswe cells,without having any effect
